Measured values from PubChem BioAssay (NCI).
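Results reflect a 48-hour exposure of cells in 96-well plates to compound at five concentrations. TGI: total growth inhibition.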

Experiments:
Assay in all cases: NCI tumour cell line growth inhibition, 48 h
DLD-1 colon = tested on: DLD-1 colon
MALME-3M melanoma = tested on: MALME-3M melanoma
NCI-H522 lung = tested on: NCI-H522 lung
HOP-18 NSCLC = tested on: HOP-18 NSCLC
SNB-19 CNS = tested on: SNB-19 CNS
NCI-H23 lung = tested on: NCI-H23 lung
HOP-92 NSCLC = tested on: HOP-92 NSCLC
U251 CNS = tested on: U251 CNS
HCT-116 colon = tested on: HCT-116 colon
P388/ADR leukemia = tested on: P388/ADR leukemia
SK-OV-3 ovarian = tested on: SK-OV-3 ovarian
NCI/ADR-RES ovarian = tested on: NCI/ADR-RES ovarian
XF 498 CNS = tested on: XF 498 CNS
HCT-15 colon = tested on: HCT-15 colon
SW-620 colon = tested on: SW-620 colon
A498 renal = tested on: A498 renal
M19-MEL melanoma = tested on: M19-MEL melanoma
SNB-78 CNS = tested on: SNB-78 CNS
OVCAR-4 ovarian = tested on: OVCAR-4 ovarian
MCF7 breast = tested on: MCF7 breast
SK-MEL-2 melanoma = tested on: SK-MEL-2 melanoma
SNB-75 CNS = tested on: SNB-75 CNS
SF-268 CNS = tested on: SF-268 CNS
OVCAR-5 ovarian = tested on: OVCAR-5 ovarian
UACC-62 melanoma = tested on: UACC-62 melanoma
HT29 colon = tested on: HT29 colon
COLO 205 colon = tested on: COLO 205 colon
DMS 273 small cell lung = tested on: DMS 273 small cell lung
SF-539 CNS = tested on: SF-539 CNS
MOLT-4 leukemia = tested on: MOLT-4 leukemia
DMS 114 small cell lung = tested on: DMS 114 small cell lung
OVCAR-8 ovarian = tested on: OVCAR-8 ovarian
EKVX NSCLC = tested on: EKVX NSCLC
LOX IMVI melanoma = tested on: LOX IMVI melanoma
A549 NSCLC = tested on: A549 NSCLC
KM20L2 colon = tested on: KM20L2 colon
P388 leukemia = tested on: P388 leukemia
HL-60(TB) leukemia = tested on: HL-60(TB) leukemia
CAKI-1 renal = tested on: CAKI-1 renal
UO-31 renal = tested on: UO-31 renal
SK-MEL-28 melanoma = tested on: SK-MEL-28 melanoma
RXF 393 renal = tested on: RXF 393 renal
HCC-2998 colon = tested on: HCC-2998 colon
SK-MEL-5 melanoma = tested on: SK-MEL-5 melanoma
SF-295 CNS = tested on: SF-295 CNS
KM12 colon = tested on: KM12 colon
CCRF-CEM leukemia = tested on: CCRF-CEM leukemia
IGROV1 ovarian = tested on: IGROV1 ovarian
NCI-H460 lung = tested on: NCI-H460 lung
OVCAR-3 ovarian = tested on: OVCAR-3 ovarian
UACC-257 melanoma = tested on: UACC-257 melanoma
HOP-62 NSCLC = tested on: HOP-62 NSCLC
K-562 leukemia = tested on: K-562 leukemia
RPMI-8226 leukemia = tested on: RPMI-8226 leukemia
SN12C renal = tested on: SN12C renal
NCI-H226 lung = tested on: NCI-H226 lung
SN12K1 renal = tested on: SN12K1 renal

With `O=C(O)C1Cc2c([nH]c3ccccc23)C=N1` (stereo unspecified) the TGI (DLD-1 colon) was over 100 µM, the TGI (MALME-3M melanoma) was over 100 µM and the TGI (NCI-H522 lung) was over 100 µM. The TGI (HOP-18 NSCLC) was over 100 µM, the TGI (SNB-19 CNS) was over 100 µM and the TGI (NCI-H23 lung) was over 100 µM. For the same compound, the TGI (HOP-92 NSCLC) was over 100 µM, the TGI (U251 CNS) was over 100 µM and the TGI (HCT-116 colon) was over 100 µM. For the same compound, the TGI (P388/ADR leukemia) was over 100 µM, the TGI (SK-OV-3 ovarian) was over 100 µM and the TGI (NCI/ADR-RES ovarian) was over 100 µM. The TGI (XF 498 CNS) was over 100 µM, the TGI (HCT-15 colon) was over 100 µM and the TGI (SW-620 colon) was over 100 µM. It also gave a TGI (A498 renal) of over 100 µM, a TGI (M19-MEL melanoma) of over 100 µM and a TGI (SNB-78 CNS) of over 100 µM. The TGI (OVCAR-4 ovarian) was over 100 µM, the TGI (MCF7 breast) was over 100 µM and the TGI (SK-MEL-2 melanoma) was over 100 µM. The TGI (SNB-75 CNS) was over 100 µM, the TGI (SF-268 CNS) was over 100 µM and the TGI (OVCAR-5 ovarian) was over 100 µM. It also gave a TGI (UACC-62 melanoma) of over 100 µM, a TGI (HT29 colon) of over 100 µM and a TGI (COLO 205 colon) of over 100 µM. It also gave a TGI (DMS 273 small cell lung) of over 100 µM, a TGI (SF-539 CNS) of over 100 µM and a TGI (MOLT-4 leukemia) of over 100 µM. The TGI (DMS 114 small cell lung) was over 100 µM, the TGI (OVCAR-8 ovarian) was over 100 µM and the TGI (EKVX NSCLC) was over 100 µM. For the same compound, the TGI (LOX IMVI melanoma) was over 100 µM, the TGI (A549 NSCLC) was over 100 µM and the TGI (KM20L2 colon) was over 100 µM. For the same compound, the TGI (P388 leukemia) was over 100 µM, the TGI (HL-60(TB) leukemia) was over 100 µM and the TGI (CAKI-1 renal) was over 100 µM. It also gave a TGI (UO-31 renal) of over 100 µM, a TGI (SK-MEL-28 melanoma) of over 100 µM and a TGI (RXF 393 renal) of over 100 µM. For the same compound, the TGI (HCC-2998 colon) was over 100 µM, the TGI (SK-MEL-5 melanoma) was over 100 µM and the TGI (SF-295 CNS) was over 100 µM. It also gave a TGI (KM12 colon) of over 31.7 µM, a TGI (CCRF-CEM leukemia) of over 100 µM and a TGI (IGROV1 ovarian) of over 100 µM. For the same compound, the TGI (NCI-H460 lung) was over 100 µM, the TGI (OVCAR-3 ovarian) was over 100 µM and the TGI (UACC-257 melanoma) was over 100 µM. For the same compound, the TGI (HOP-62 NSCLC) was over 100 µM, the TGI (K-562 leukemia) was over 100 µM and the TGI (RPMI-8226 leukemia) was over 100 µM. For the same compound, the TGI (SN12C renal) was over 100 µM.

Compound `COC(=O)c1ccc(N=NN(C)COc2ccc([N+](=O)[O-])cc2)cc1` has a TGI (DLD-1 colon) of over 100 µM, a TGI (MALME-3M melanoma) of over 100 µM and a TGI (NCI-H522 lung) of over 100 µM. For the same compound, the TGI (SNB-19 CNS) was over 100 µM, the TGI (NCI-H23 lung) was over 100 µM and the TGI (HOP-92 NSCLC) was over 100 µM. For the same compound, the TGI (U251 CNS) was over 100 µM, the TGI (HCT-116 colon) was over 100 µM and the TGI (P388/ADR leukemia) was over 100 µM. The TGI (SK-OV-3 ovarian) was over 100 µM, the TGI (NCI/ADR-RES ovarian) was over 100 µM and the TGI (XF 498 CNS) was over 100 µM. For the same compound, the TGI (HCT-15 colon) was over 100 µM, the TGI (SW-620 colon) was over 100 µM and the TGI (A498 renal) was over 100 µM. For the same compound, the TGI (M19-MEL melanoma) was over 100 µM, the TGI (SNB-78 CNS) was over 100 µM and the TGI (OVCAR-4 ovarian) was over 100 µM. It also gave a TGI (MCF7 breast) of over 100 µM, a TGI (SK-MEL-2 melanoma) of over 100 µM and a TGI (SNB-75 CNS) of over 100 µM. For the same compound, the TGI (SF-268 CNS) was over 100 µM, the TGI (OVCAR-5 ovarian) was over 100 µM and the TGI (UACC-62 melanoma) was over 100 µM. It also gave a TGI (HT29 colon) of over 100 µM, a TGI (COLO 205 colon) of over 100 µM and a TGI (DMS 273 small cell lung) of over 100 µM. It also gave a TGI (SF-539 CNS) of over 100 µM, a TGI (MOLT-4 leukemia) of over 100 µM and a TGI (DMS 114 small cell lung) of over 100 µM. For the same compound, the TGI (OVCAR-8 ovarian) was over 100 µM, the TGI (NCI-H226 lung) was over 100 µM and the TGI (EKVX NSCLC) was over 100 µM. The TGI (LOX IMVI melanoma) was over 100 µM, the TGI (A549 NSCLC) was over 100 µM and the TGI (KM20L2 colon) was over 100 µM. It also gave a TGI (SN12K1 renal) of over 100 µM, a TGI (P388 leukemia) of over 100 µM and a TGI (HL-60(TB) leukemia) of 52.5 µM. It also gave a TGI (CAKI-1 renal) of over 100 µM, a TGI (UO-31 renal) of over 100 µM and a TGI (SK-MEL-28 melanoma) of over 100 µM. It also gave a TGI (RXF 393 renal) of over 100 µM, a TGI (HCC-2998 colon) of over 100 µM and a TGI (SK-MEL-5 melanoma) of over 100 µM. The TGI (SF-295 CNS) was over 100 µM, the TGI (KM12 colon) was over 100 µM and the TGI (CCRF-CEM leukemia) was over 100 µM. For the same compound, the TGI (IGROV1 ovarian) was over 100 µM, the TGI (NCI-H460 lung) was over 100 µM and the TGI (OVCAR-3 ovarian) was over 100 µM. It also gave a TGI (UACC-257 melanoma) of over 100 µM, a TGI (HOP-62 NSCLC) of over 100 µM and a TGI (K-562 leukemia) of over 100 µM. The TGI (RPMI-8226 leukemia) was over 95.3 µM and the TGI (SN12C renal) was over 100 µM.
